The record followed here is patent US20130345205A1, “SUBSTITUTED BICYCLIC ARALKYL PYRAZOLE LACTAM ANALOGS AS ALLOSTERIC MODULATORS OF MGLUR5 RECEPTORS” (Vanderbilt University, priority 2012, published 2013).

The target in one series is human mGluR5 (Homo sapiens, UniProt P41594). Nature of the series: Cell-based functional Ca2+ mobilization assay (FDSS), potentiation of glutamate EC20 response. Conditions: H10H cell-line (HEK, recombinant human mGluR5); for Emax: glutamate EC20, maximum average response at a single concentration, percent of maximal glutamate response; for EC50: positive allosteric modulation in presence of glutamate EC20, concentration in mol/L. The text has this:
Human mGluR5a cDNA in pCMV6-XL6 mammalian expression plasmid was purchased from OriGene Technologies, Inc. (catalogue number SC326357) and subcloned into pcDNA3.1(−). Human embryonic kidney (HEK) 293A cells were then transfected with human mGluR5a pcDNA3.1(−) using LipofectAmine2000 (Invitrogen) and monoclones were selected and tested for functional response using a Ca^2+ mobilization assay. Monoclones were named for the species (“H” for human) plus the location on the plate (e.g. “10H”).
HEK cells transfected with the human mGluR5a receptor (H10H or H12H cell line) were plated at 15,000 cells/well in clear-bottomed poly-D-lysine-coated assay plates (BD Falcon) in glutamate-glutamine-free growth medium and incubated overnight at 37° C. and 5% CO2. Cell-lines used were either the H10H or H12H cell-lines expressing the human mGluR5 receptor. The following day, the growth medium was removed and the cells were washed with assay buffer containing 1× Hank's balanced salt solution (Invitrogen, Carlsbad, Calif.), 20 mM HEPES, 2.5 mM probenecid, pH 7.4 and left with 20 μL of this reagent. Following this step, the cells were loaded with calcium indicator dye, fluo-4 AM, to a final concentration of 2 μM and incubated for 40-45 min at 37° C. The dye solution was removed and replaced with assay buffer. Cell plates were held for 10-15 min at room temperature and were then loaded into the Functional Drug Screening System 6000 (FDSS 6000, Hamamatsu, Japan).
After establishment of a fluorescence baseline for about 3 seconds, the compounds of the present invention were added to the cells, and the response in cells was measured. 2.3 minutes later an EC20 concentration of the mGluR5 receptor agonist glutamate was added to the cells, and the response of the cells was measured for about 1.7 minutes. All test compounds were dissolved and diluted to a concentration of 10 mM in 100% DMSO and then serially diluted into assay buffer for a 2× stock solution in 0.6% DMSO; stock compounds were then added to the assay for a final DMSO concentration of 0.3% after the first addition to the assay well. Calcium fluorescence measures were recorded as fold over basal fluorescence; raw data was then normalized to the maximal response to glutamate. Potentiation of the agonist response of the mGluR5 receptor in the present invention was observed as an increase in response to submaximal concentrations of glutamate in the presence of compound compared to the response to glutamate in the absence of compound.
The concentration-response curves of compounds of the present invention, obtained in the presence of EC20 of mGluR5 receptor agonist glutamate to determine positive allosteric modulation, were generated using Microsoft Excel with IDBS XLFit add-ins. The raw data file containing all time points was used as the data source in the analysis template. This was saved by the FDSS as a tab-delimited text file. Data were normalized using a static ratio function (F/F0) for each measurement of the total 350 values per well divided by each well's initial value. Data was then reduced as to peak amplitudes (Max-Initial Min) using a time range that starts approximately 1 second after the glutamate EC20 addition and continues for approximately 40 seconds. This is sufficient time to capture the peak amplitude of the cellular Calcium response. Individual amplitudes were expressed as % EMax by multiplying each amplitude by 100 and then dividing the product by the mean of the amplitudes derived from the glutamate ECMax-treated wells. pEC50 values for test compounds were generated by fitting the normalized values versus the log of the test compound concentration (in mol/L) using a 4 parameter logistic equation where none of the parameters were fixed. Each of the three values collected at each concentration of test compound were weighted evenly. Individual values falling outside the 95% prediction limits of the curve fit were automatically excluded from the fit. […]
A general note: Calcium assays in cells follow changes in intracellular calcium, usually with a dye or a luminescent sensor.

Some results are limits rather than exact numbers.

Sequence of human mGluR5 (P41594 21-1180 isoform P41594-2 limits assumed): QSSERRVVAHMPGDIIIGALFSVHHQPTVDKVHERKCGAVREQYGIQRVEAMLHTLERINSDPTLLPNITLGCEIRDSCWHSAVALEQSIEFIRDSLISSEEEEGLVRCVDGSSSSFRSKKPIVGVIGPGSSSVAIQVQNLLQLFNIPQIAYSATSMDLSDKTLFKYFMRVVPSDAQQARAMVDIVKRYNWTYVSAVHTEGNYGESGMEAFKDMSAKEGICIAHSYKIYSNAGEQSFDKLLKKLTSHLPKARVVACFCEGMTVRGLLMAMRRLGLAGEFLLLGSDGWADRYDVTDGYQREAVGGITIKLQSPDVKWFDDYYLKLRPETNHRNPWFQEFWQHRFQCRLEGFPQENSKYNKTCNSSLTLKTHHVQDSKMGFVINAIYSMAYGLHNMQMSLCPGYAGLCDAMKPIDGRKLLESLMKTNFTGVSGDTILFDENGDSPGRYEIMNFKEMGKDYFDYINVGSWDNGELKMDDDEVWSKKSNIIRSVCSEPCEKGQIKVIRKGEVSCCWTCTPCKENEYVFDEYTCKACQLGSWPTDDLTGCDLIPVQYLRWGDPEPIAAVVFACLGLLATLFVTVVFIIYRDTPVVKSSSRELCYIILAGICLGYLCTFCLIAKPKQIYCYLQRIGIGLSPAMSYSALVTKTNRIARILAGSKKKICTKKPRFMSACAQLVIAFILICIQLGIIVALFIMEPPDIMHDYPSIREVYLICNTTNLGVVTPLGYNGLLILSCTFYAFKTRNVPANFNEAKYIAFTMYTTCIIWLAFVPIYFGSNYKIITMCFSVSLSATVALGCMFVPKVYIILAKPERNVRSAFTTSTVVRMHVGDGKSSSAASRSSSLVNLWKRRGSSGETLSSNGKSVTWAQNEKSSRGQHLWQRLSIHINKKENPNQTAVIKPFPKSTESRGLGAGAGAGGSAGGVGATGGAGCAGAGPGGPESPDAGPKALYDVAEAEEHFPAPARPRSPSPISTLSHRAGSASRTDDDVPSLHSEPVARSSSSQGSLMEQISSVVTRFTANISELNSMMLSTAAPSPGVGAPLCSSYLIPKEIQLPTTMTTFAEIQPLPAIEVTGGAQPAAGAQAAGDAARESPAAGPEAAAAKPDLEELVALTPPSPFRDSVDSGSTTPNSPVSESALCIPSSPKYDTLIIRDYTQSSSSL

A word on the Emax: it is the greatest response seen or fitted, relative to the assay's reference. By EC50 is commonly meant the concentration needed to bring the measured effect to its halfway point. In the case of `N#Cc1cccc(OCc2cc3n(n2)CCN(Cc2ccccc2)C3=O)c1` [Example B43], on human mGluR5, the maximal response (Emax) came to 53% and the EC50 is 380 nM.
A word on the melting point: it is the temperature of the solid-liquid transition. Compound `O=C1c2cc(COc3ccccc3)nn2CCN1Cc1ccccc1` [Example B7, 5-benzyl-2-(phenoxymethyl)-6,7-dihydropyrazolo[1,5-a]pyrazin-4(5H)-one] displayed a melting point of 91.5 °C. Besides, at human mGluR5, the Emax was determined as 69% and the EC50 is 49 nM.
The like results for `O=C1c2cc(COc3ccccc3)nn2CCN1Cc1ccc(F)cc1F` [Example B22] were, in that order, 129.8 °C, 69% and 61.7 nM.
The like results for `Cc1ncccc1CN1CCn2nc(COc3ccccc3)cc2C1=O` [Example B96] were, in that order, 137.5 °C, 67% and 1000 nM.
On to `O=C1c2cc(COc3ccccc3)nn2CCN1Cc1ncc(F)cn1` [Example B70], for which, on human mGluR5, the Emax is 66% and the EC50 was 398 nM.
In the case of `COc1ccccc1CN1CCn2nc(COc3ccccc3)cc2C1=O` [Example B38], on human mGluR5, the Emax was determined as 63.5% and the EC50 is 40.7 nM.
On the same counts, the results for `COc1cccc(CN2CCn3nc(COc4ccccc4)cc3C2=O)c1Cl` [Example B60] are 75.5% and 79.4 nM.
`COc1ccc(CN2CCn3nc(COc4cc(C)nc(C)c4)cc3C2=O)cc1` [Example B35] gave a melting point of 164.8 °C. On human mGluR5, the Emax turned out to be 17% and the EC50 was over 31600 nM.
Take `O=C1c2cc(COc3ccccc3)nn2CCN1Cc1cccc(F)c1` [Example B20]: the melting point came to 95 °C. For the same compound, at human mGluR5, the Emax came out at 65% and the EC50 was 47.9 nM.
`O=C1c2cc(COc3ccccc3)nn2CCN1Cc1ccncc1` [Example B102]: at human mGluR5, the Emax came out at 68% and the EC50 is 1780 nM.
On the same counts, the results for `COc1ccc(CN2CCn3nc(COc4ccccc4)cc3C2=O)cc1` [Example B34] are 69% and 209 nM.
The like results for `COc1ccc(F)cc1CN1CCn2nc(COc3ccccc3)cc2C1=O` [Example B61] were, in that order, 66% and 85.1 nM.
On the same counts, the results for `COc1cccc(CN2CCn3nc(COc4ccccc4)cc3C2=O)c1F` [Example B59] are 71% and 107 nM.
The compound `COc1cc(CN2CCn3nc(COc4ccccc4)cc3C2=O)ccc1F` [Example B66] gave a melting point of 132.1 °C. Besides, at human mGluR5, the Emax amounted to 64% and the EC50 is 204 nM.
Regarding `C[C@@H]1Cn2nc(COc3ccccc3)cc2C(=O)N1Cc1ncccc1Cl` [Example B87], the melting point turned out to be 166.4 °C. Also, on human mGluR5, the Emax was 80% and the EC50 is 275 nM.
For the compound `CC1CN(Cc2ccccc2)C(=O)c2cc(COc3ccccc3)nn21` (single isomer, unassigned) [Example B14], the melting point came out at 97.7 °C. At human mGluR5, the Emax worked out at 69.5% and the EC50 is 60.3 nM.
On the same counts, the results for `O=C1c2cc(COc3ccccc3)nn2CCN1Cc1ccc(Cl)cc1` [Example B48] are 169 °C, 65% and 155 nM.
In turn, `Cc1cccc(CN2CCn3nc(COc4ccccc4)cc3C2=O)n1` [Example B3, 5-[(6-methylpyridin-2-yl)methyl]-2-(phenoxymethyl)-6,7-dihydropyrazolo[1,5-a]pyrazin-4(5H)-one] yielded a melting point of 113.4 °C. Also, on human mGluR5, the Emax was found to be 68% and the EC50 is 302 nM.
The like results for `CC1(C)CN(Cc2ccccc2)C(=O)c2cc(COc3ccccc3)nn21` [Example B45] were, in that order, 112.6 °C, 66% and 178 nM.
On the same counts, the results for `O=C1c2cc(COc3ccc(F)cc3)nn2CCN1Cc1ncccc1Cl` [Example B88] are 268.8 °C, 71% and 93.3 nM.
The like results for `COc1cnc(CN2CCn3nc(COc4ccccc4)cc3C2=O)nc1` [Example B12] were, in that order, over 300 °C, 59.5% and 30.9 nM.
As to `Cc1cc(CN2CCn3nc(COc4ccccc4)cc3C2=O)no1` [Example B89], the melting point is 187.5 °C. For the same compound, at human mGluR5, the Emax amounted to 66% and the EC50 is 955 nM.
On the same counts, the results for `COc1cccnc1CN1CCn2nc(COc3ccccc3)cc2C1=O` [Example B75] are 132.4 °C, 71% and 1150 nM.
The like results for `Cc1cc(CN2CCn3nc(COc4ccccc4)cc3C2=O)ncc1F` [Example B82] were, in that order, 129.8 °C, 75.5% and 355 nM.
On the same counts, the results for `Cc1cccc(CN2C(=O)c3cc(COc4ccccc4)nn3C[C@H]2C)n1` [Example B86] are 107.6 °C, 71.5% and 302 nM.
Consider `Cc1nccc(CN2CCn3nc(COc4ccccc4)cc3C2=O)n1` [Example B84], for which the melting point was over 300 °C. Also, at human mGluR5, the Emax was 70% and the EC50 was 1740 nM.
In the case of `C[C@@H]1Cn2nc(COc3ccccn3)cc2C(=O)N1Cc1ccccc1` [Example B56], on human mGluR5, the Emax stood at 70% and the EC50 was 1000 nM.
On the same counts, the results for `CC1CN(Cc2ccccc2)C(=O)c2cc(COc3ccc(F)cc3)nn21` (single isomer, unassigned) [Example B54] are 69.5% and 93.3 nM.
On the same counts, the results for `O=C1c2cc(COc3ccccc3)nn2CCN1Cc1ncccc1Cl` [Example B6, 5-[(3-chloropyridin-2-yl)methyl]-2-(phenoxymethyl)-6,7-dihydropyrazolo[1,5-a]pyrazin-4(5H)-one] are 76% and 120 nM.
On the same counts, the results for `CC1CN(Cc2ccccc2)C(=O)c2cc(COc3cccc(C#N)c3)nn21` (single isomer, unassigned) [Example B53] are 65% and 525 nM.
With `C[C@H](c1ccccc1)N1CCn2nc(COc3ccccc3)cc2C1=O` [Example B8, 2-(phenoxymethyl)-5-[(1R)-1-phenylethyl]-6,7-dihydropyrazolo[1,5-a]pyrazin-4(5H)-one], at human mGluR5, the Emax was determined as 59.5% and the EC50 was 30.9 nM.
The like results for `CC1CN(Cc2ccccc2)C(=O)c2cc(COc3cccc(F)c3)nn21` (single isomer, unassigned) [Example B10, (7*S)-5-benzyl-2-[(3-fluorophenoxy)methyl]-7-methyl-6,7-dihydropyrazolo[1,5-a]pyrazin-4(5H)-one] were, in that order, 70.5% and 69.2 nM.
Take `C[C@@H]1Cn2nc(COc3cccc(F)c3)cc2C(=O)N1Cc1ccccc1` [Example B49]: on human mGluR5, the Emax amounted to 73% and the EC50 was 93.3 nM.
Consider `Cc1cccc(OCc2cc3n(n2)C(C)CN(Cc2ccccc2)C3=O)c1` (single isomer, unassigned) [Example B55], for which the Emax at human mGluR5 was determined as 69.5%.
For the compound `Cc1cccc(OCc2cc3n(n2)C[C@@H](C)N(Cc2ccccc2)C3=O)c1` [Example B57], on human mGluR5, the Emax turned out to be 64.5% and the EC50 was 186 nM.
The like results for `C[C@@H]1Cn2nc(COc3cccc(C#N)c3)cc2C(=O)N1Cc1ccccc1` [Example B58] were, in that order, 59% and 468 nM.
